According to the NIST ThermoML archive (doi:10.1016/j.tca.2012.08.011):
± gives the expanded uncertainty stated by the source.

Test: xn = mol fraction of the nth substance listed
Conditions: 101 kPa, Liquid; for mass density: Vibrating tube method; for speed of sound: Linear variable-path acoustic interferometer

NC1CCCCC1 [cyclohexylamine] + C1CCCCC1
Conditions | mass density, 308.15 K [kg/m3] | mass density, 313.15 K [kg/m3] | mass density, 318.15 K [kg/m3] | mass density, 323.15 K [kg/m3] | speed of sound, 313.15 K [m/s] | speed of sound, 318.15 K [m/s] | speed of sound, 323.15 K [m/s]
x1 = 0.0545 | 768.69 ± 0.12 | 763.91 ± 0.13 | 759.09 ± 0.13 | 754.26 ± 0.13 | 1185.5 ± 1.3 | 1162.1 ± 1.3 | 1138.5 ± 1.3
x1 = 0.1032 | 772.67 ± 0.12 | 767.89 ± 0.12 | 763.09 ± 0.13 | 758.27 ± 0.13 | 1189.8 ± 1.3 | 1166.2 ± 1.3 | 1142.7 ± 1.3
x1 = 0.1514 | 776.74 ± 0.12 | 771.98 ± 0.12 | 767.19 ± 0.12 | 762.37 ± 0.13 | 1195.5 ± 1.3 | 1171.9 ± 1.3 | 1148.4 ± 1.3
x1 = 0.204 | 781.3 ± 0.12 | 776.54 ± 0.12 | 771.77 ± 0.12 | 766.97 ± 0.13 | 1202 ± 1.3 | 1178.7 ± 1.3 | 1155.2 ± 1.3
x1 = 0.2496 | 785.28 ± 0.12 | 780.53 ± 0.12 | 775.77 ± 0.12 | 770.99 ± 0.13 | 1207.9 ± 1.3 | 1184.7 ± 1.3 | 1161.4 ± 1.3
x1 = 0.3052 | 790.22 ± 0.12 | 785.49 ± 0.12 | 780.74 ± 0.12 | 775.97 ± 0.12 | 1216.3 ± 1.3 | 1193.1 ± 1.3 | 1169.9 ± 1.3
x1 = 0.3467 | 793.96 ± 0.12 | 789.24 ± 0.12 | 784.5 ± 0.12 | 779.75 ± 0.12 | 1222.2 ± 1.4 | 1199.2 ± 1.3 | 1176.2 ± 1.3
x1 = 0.3967 | 798.48 ± 0.12 | 793.77 ± 0.12 | 789.02 ± 0.12 | 784.29 ± 0.12 | 1230.3 ± 1.4 | 1207.3 ± 1.3 | 1184.5 ± 1.3
x1 = 0.4025 | 799.01 ± 0.12 | 794.29 ± 0.12 | 789.56 ± 0.12 | 784.82 ± 0.12 | 1231 ± 1.4 | 1208.2 ± 1.3 | 1185.4 ± 1.3
x1 = 0.4478 | 803.16 ± 0.12 | 798.45 ± 0.12 | 793.71 ± 0.12 | 788.97 ± 0.12 | 1238.5 ± 1.4 | 1215.8 ± 1.4 | 1193.2 ± 1.3
x1 = 0.4992 | 807.91 ± 0.12 | 803.21 ± 0.12 | 798.49 ± 0.12 | 793.75 ± 0.12 | 1247 ± 1.4 | 1224.5 ± 1.4 | 1202 ± 1.3
x1 = 0.5538 | 812.89 ± 0.12 | 808.21 ± 0.12 | 803.51 ± 0.12 | 798.79 ± 0.12 | 1256.3 ± 1.4 | 1233.9 ± 1.4 | 1211.6 ± 1.4
x1 = 0.6495 | 821.73 ± 0.12 | 817.07 ± 0.12 | 812.4 ± 0.12 | 807.72 ± 0.12 | 1273.3 ± 1.4 | 1251.1 ± 1.4 | 1228.8 ± 1.4
x1 = 0.6996 | 826.34 ± 0.12 | 821.7 ± 0.12 | 817.05 ± 0.12 | 812.4 ± 0.12 | 1282.6 ± 1.4 | 1260.4 ± 1.4 | 1238.3 ± 1.4
x1 = 0.7535 | 831.31 ± 0.12 | 826.67 ± 0.12 | 822.04 ± 0.12 | 817.4 ± 0.12 | 1292.9 ± 1.4 | 1270.9 ± 1.4 | 1248.9 ± 1.4
x1 = 0.8071 | 836.22 ± 0.12 | 831.61 ± 0.12 | 827 ± 0.12 | 822.37 ± 0.12 | 1303.4 ± 1.5 | 1281.5 ± 1.4 | 1259.4 ± 1.4
x1 = 0.8555 | 840.63 ± 0.12 | 836.02 ± 0.12 | 831.42 ± 0.12 | 826.82 ± 0.13 | 1312.8 ± 1.5 | 1290.9 ± 1.5 | 1269.2 ± 1.4
x1 = 0.8959 | 844.32 ± 0.12 | 839.74 ± 0.12 | 835.15 ± 0.12 | 830.56 ± 0.13 | 1321.1 ± 1.5 | 1299.2 ± 1.5 | 1277.6 ± 1.5
x1 = 0.9501 | 849.24 ± 0.12 | 844.68 ± 0.13 | 840.12 ± 0.13 | 835.56 ± 0.13 | 1332.8 ± 1.5 | 1311.1 ± 1.5 | 1289.6 ± 1.5
x1 = 1 | 853.76 ± 0.12 | 849.23 ± 0.13 | 844.68 ± 0.13 | 840.14 ± 0.13 | 1344.5 ± 1.5 | 1323.1 ± 1.5 | 1301.8 ± 1.5
